Measurements reported in US20240058457A1, “BTK DEGRADER” (Newave Pharmaceutical Inc., priority 2020, published 2024).

These compounds were tested against T1, BTK (Homo sapiens, UniProt Q06187) (assay: BTK HTRF degradation assay). Conditions: treatment time 24 h; Cisbio Total-BTK HTRF; Rec-1 / Ramos cells.
T1 construct: endogenous in cells; host or cells: Rec-1 cells (ATCC) / Ramos cells
Assay type: cell-based
Description: Rec-1 cells were obtained from American Type Culture Collection and were grown in RPMI-1640 media (ATCC, 30-2001) supplemented with 10% heat-inactivated FBS (Corning Premium Fetal Bovine Serum from Fisher, MT35015CV). Compounds of the present invention were added to 50,000 Ramos cells in round-bottom 96 well plates with a final DMSO concentration of […] and were incubated at 37° C. 5% CO2 for different time. BTK levels were determined using Cisbio Total-BTK HTRF ([…] Time-Resolved Fluorescence) kit (63ADK064PEG) according to manufacturer's protocol. Briefly, cells were incubated in 1× supplied lysis buffer for 30 minutes. In an opaque white low volume 96 well plate (Cisbio, 66PL96005), cell lysate was combined with two different specific BTK antibodies, one conjugated with Eu3+-Cryptate FRET donor and one conjugated with d2 FRET acceptor. Assay controls include wells containing cell lysate with only the Eu3+-Cryptate FRET donor antibody and wells containing both HTRF antibodies and lysis buffer without cells or control lysate provided by Cisbio. HTRF ratio was calculated as (acceptor signal at 665 nm/donor signal at 620 nm)×[…]. Background HTRF levels were determined from the control well containing the donor, but no acceptor, antibody. Background HTRF levels were subtracted from all samples. Readouts were reported as HTRF levels relative to HTRF levels of DMSO-treated cells. Four-parameter non-linear regressions were performed in GraphPad Prism 7.02 to obtain DC50 values.

T1 sequence (Q06187 whole entry): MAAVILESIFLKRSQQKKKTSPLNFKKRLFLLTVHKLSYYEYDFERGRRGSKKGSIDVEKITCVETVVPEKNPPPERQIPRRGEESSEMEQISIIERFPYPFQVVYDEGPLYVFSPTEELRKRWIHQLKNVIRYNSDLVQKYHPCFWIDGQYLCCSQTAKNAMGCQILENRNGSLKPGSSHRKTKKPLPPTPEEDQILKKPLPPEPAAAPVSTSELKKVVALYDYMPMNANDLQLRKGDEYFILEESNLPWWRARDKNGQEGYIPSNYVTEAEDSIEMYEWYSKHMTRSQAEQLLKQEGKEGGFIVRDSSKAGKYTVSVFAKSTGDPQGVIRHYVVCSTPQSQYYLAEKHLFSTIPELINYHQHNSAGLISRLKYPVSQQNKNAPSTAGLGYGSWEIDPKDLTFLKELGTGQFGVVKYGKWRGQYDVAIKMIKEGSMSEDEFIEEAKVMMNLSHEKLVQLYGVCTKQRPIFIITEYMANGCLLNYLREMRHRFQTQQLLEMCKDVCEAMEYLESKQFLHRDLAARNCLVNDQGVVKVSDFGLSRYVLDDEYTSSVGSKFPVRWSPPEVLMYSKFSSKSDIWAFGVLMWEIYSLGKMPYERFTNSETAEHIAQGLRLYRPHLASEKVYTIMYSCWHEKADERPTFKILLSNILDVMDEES

Compound | DC50 [nM] | Dmax [%] | Dmax % [%]
C[C@H]1CN([C@H]2CCN3c4ccc5c(c4OC[C@@H]3C2)C(=O)N(C2CCC(=O)NC2=O)C5=O)CCN1c1ccc(Nc2cc(-c3ccnc(N4CCn5c(cc6c5CC(C)(C)C6)C4=O)c3CO)cn(C)c2=O)nc1.Cl (stereo partly drawn) [Example 18, hydrochloride] | 22.8 | – | –
C[C@H]1CN([C@H]2CCN3c4ccc5c(c4OC[C@H]3C2)C(=O)N(C2CCC(=O)NC2=O)C5=O)CCN1c1ccc(Nc2cc(-c3ccnc(N4CCn5c(cc6c5CC(C)(C)C6)C4=O)c3CO)cn(C)c2=O)nc1.Cl (stereo partly drawn) [Example 17] | – | – | 95
C[C@H]1CN(C2CCN(c3ccc4c(c3)C(=O)N(C3CCC(=O)NC3=O)C4=O)CC2)CCN1c1ccc(Nc2cc(-c3ccnc(N4CCn5c(cc6c5CC(C)(C)C6)C4=O)c3CO)ncn2)nc1 (stereo partly drawn) [Example 15, 5-{4-[(3S)-4-(6-{[6-(2-{4,4-dimethyl-9-oxo-1,10-diazatricyclo[6.4.0.0^{2,6}]dodeca-2(6),7-dien-10-yl}-3-(hydroxymethyl)pyridin-4-yl)pyrimidin-4-yl]amino}pyridin-3-yl)-3-methylpiperazin-1-yl]piperidin-1-yl}-2-(2,6-dioxopiperidin-3-yl)isoindole-1,3-dione] | 21.7 | – | 98
C[C@H]1CN(C2CN(c3ccc4c(c3)C(=O)N(C3CCC(=O)NC3=O)C4=O)C2)CCN1c1ccc(Nc2cc(-c3ccnc(N4CCn5c(cc6c5CC(C)(C)C6)C4=O)c3CO)cn(C)c2=O)nc1 (stereo partly drawn) [Example 1, 5-{3-[(3S)-4-{6-[(2′-{4,4-dimethyl-9-oxo-1,10-diazatricyclo[6.4.0.0^{2,6}]dodeca-2(6),7-dien-10-yl}-3′-(hydroxymethyl)-1-methyl-6-oxo-[3,4′-bipyridin]-5-yl)amino]pyridin-3-yl}-3-methylpiperazin-1-yl]azetidin-1-yl}-2-(2,6-dioxopiperidin-3-yl)isoindole-1,3-dione] | 1.16 | – | 100
C[C@H]1CN(C2CCN(c3ccc4c(c3)C(=O)N(C3CCC(=O)NC3=O)C4=O)CC2)CCN1c1ccc(Nc2cc(-c3ccnc(N4CCn5c(cc6c5CC(C)(C)C6)C4=O)c3CO)ccn2)nc1 (stereo partly drawn) [Example 13, 5-{4-[(3S)-4-{6-[(2′-{4,4-dimethyl-9-oxo-1,10-diazatricyclo[6.4.0.0^{2,6}]dodeca-2(6),7-dien-10-yl}-3′-(hydroxymethyl)-[4,4′-bipyridin]-2-yl)amino]pyridin-3-yl}-3-methylpiperazin-1-yl]piperidin-1-yl}-2-(2,6-dioxopiperidin-3-yl)isoindole-1,3-dione] | 4.4 | – | 98
5-{4-[(3S)-4-{6-[(6-tert-butyl-2′. {4,4-dimethyl-9-oxo-1,10-diazatricyclo[6.4.0.0^{2,6}]dodeca-2(6),7-dien-10-yl}-3′-(hydroxymethyl)-[3,4′-bipyridin]-5-yl)amino]pyridin-3-yl}-3-methylpiperazin-1-yl]piperidin-1-yl}-2-(2,6-dioxopiperidin-3-yl)isoindole-1,3-dione [Example 12] | > 1000 | – | 7
C[C@H]1CN([C@H]2CCN3c4ccc5c(c4OC[C@@H]3C2)C(=O)N(C2CCC(=O)NC2=O)C5=O)CCN1c1ccc(Nc2cc(-c3ccnc(N4CCn5c(cc6c5CC(C)(C)C6)C4=O)c3CO)cn(C)c2=O)nc1.Cl (stereo partly drawn) [Example 18] | – | – | 93
Cc1c(-c2cc(Nc3ccc(N4CCN(C5CCN(c6ccc7c(c6)C(=O)N(C6CCC(=O)NC6=O)C7=O)CC5)C[C@@H]4C)cn3)c(=O)n(C)c2)ccnc1N1CCn2c(cc3c2CC(C)(C)C3)C1=O (stereo partly drawn) [Example 10, 5-{4-[(3S)-4-{6-[(2′-{4,4-dimethyl-9-oxo-1,10-diazatricyclo[6.4.0.0^{2,6}]dodeca-2(6),7-dien-10-yl}-1,3′-dimethyl-6-oxo-[3,4′-bipyridin]-5-yl)amino]pyridin-3-yl}-3-methylpiperazin-1-yl]piperidin-1-yl}-2-(2,6-dioxopiperidin-3-yl)isoindole-1,3-dione] | 4.63 | – | 99
C[C@H]1CN(C2CCN(c3ccc4c(c3)C(=O)N(C3CCC(=O)NC3=O)C4=O)CC2)CCN1c1ccc(Nc2cc(-c3ccnc(N4CCc5c(sc6c5CCCC6)C4=O)c3CO)cn(C)c2=O)nc1 (stereo partly drawn) [Example 11, 2-(2,6-dioxopiperidin-3-yl)-5-{4-[(3S)-4-(6-{[3′-(hydroxymethyl)-1-methyl-6-oxo-2′-{6-oxo-8-thia-5-azatricyclo[7.4.0.0^{2,7}]trideca-1(9),2(7)-dien-5-yl}-[3,4′-bipyridin]-5-yl]amino}pyridin-3-yl)-3-methylpiperazin-1-yl]piperidin-1-yl}isoindole-1,3-dione] | 9.49 | – | 99
C[C@H]1CN([C@@H]2CCN3c4ccc5c(c4OC[C@H]3C2)C(=O)N(C2CCC(=O)NC2=O)C5=O)CCN1c1ccc(Nc2cc(-c3ccnc(N4CCn5c(cc6c5CC(C)(C)C6)C4=O)c3CO)cn(C)c2=O)nc1 (stereo partly drawn) [Example 16, (5aR,7R)-7-((S)-4-(6-((2′-(7,7-dimethyl-1-oxo-1,3,4,6,7,8-hexahydro-2H-cyclopenta[4,5]pyrrolo[1,2-a]pyrazin-2-yl)-3′-(hydroxymethyl)-1-methyl-6-oxo-1,6-dihydro-[3,4′-bipyridin]-5-yl)amino)pyridin-3-yl)-3-methylpiperazin-1-yl)-2-(2,6-dioxopiperidin-3-yl)-5,5a,6,7,8,9-hexahydro-1H-pyrido[1′,2′:4,5][1,4]oxazino[2,3-e]isoindole-1,3(2H)-dione] | 29.6 | 97 | –

More lines, in order of falling DC50, values ahead:

DC50 [nM] | Dmax [%] | Dmax % [%] | Compound
3.58 | – | – | C[C@H]1CN([C@H]2CCN3c4ccc5c(c4OC[C@H]3C2)C(=O)N(C2CCC(=O)NC2=O)C5=O)CCN1c1ccc(Nc2cc(-c3ccnc(N4CCn5c(cc6c5CC(C)(C)C6)C4=O)c3CO)cn(C)c2=O)nc1.Cl (stereo partly drawn) [Example 17, hydrochloride]
2.04 | 97 | – | C[C@H]1CN(C2CC(C#Cc3ccc4c(c3)C(=O)N(C3CCC(=O)NC3=O)C4=O)C2)CCN1c1ccc(Nc2cc(-c3ccnc(N4CCn5c(cc6c5CC(C)(C)C6)C4=O)c3CO)cn(C)c2=O)nc1 (stereo partly drawn) [Example 3, 5-((3-((S)-4-(6-((2′-(7,7-dimethyl-1-oxo-1,3,4,6,7,8-hexahydro-2H-cyclopenta[4,5]pyrrolo[1,2-a]pyrazin-2-yl)-3′-(hydroxymethyl)-1-methyl-6-oxo-1,6-dihydro-[3,4′-bipyridin]-5-yl)amino)pyridin-3-yl)-3-methylpiperazin-1-yl)cyclobutyl)ethynyl)-2-(2,6-dioxopiperidin-3-yl)isoindoline-1,3-dione]
1.15 | – | 94 | COc1ncc(-c2ccnc(N3CCn4c(cc5c4CC(C)(C)C5)C3=O)c2CO)cc1Nc1ccc(N2CCN(C3CCN(c4ccc5c(c4)C(=O)N(C4CCC(=O)NC4=O)C5=O)CC3)C[C@@H]2C)cn1 (stereo partly drawn) [Example 14, 5-{4-[(3S)-4-{6-[(2′-{4,4-dimethyl-9-oxo-1,10-diazatricyclo[6.4.0.0^{2,6}]dodeca-2(6),7-dien-10-yl}-3′-(hydroxymethyl)-6-methoxy-[3,4′-bipyridin]-5-yl)amino]pyridin-3-yl}-3-methylpiperazin-1-yl]piperidin-1-yl}-2-(2,6-dioxopiperidin-3-yl)isoindole-1,3-dione]
0.9 | – | 99 | C[C@H]1CN(C2CCN(c3ccc4c(c3)C(=O)N(C3CCC(=O)NC3=O)C4=O)CC2)CCN1c1ccc(Nc2cc(-c3ccnc(N4CCc5c(sc6c5CCCC6)C4=O)c3CO)cn(C)c2=O)nc1 (stereo partly drawn) [Example 9, 2-(2,6-dioxopiperidin-3-yl)-5-{4-[(3S)-4-(6-{[3′-(hydroxymethyl)-1-methyl-6-oxo-2′-{6-oxo-8-thia-5-azatricyclo[7.4.0.0^{2,7}]trideca-1(9),2(7)-dien-5-yl}-[3,4′-bipyridin]-5-yl]amino}pyridin-3-yl)-3-methylpiperazin-1-yl]piperidin-1-yl}isoindole-1,3-dione]
